Patent publication US5455222A, “1-substituted-5-thiomethylthiocyanato-1H-tetrazoles, compositions containing them and their use as antimicrobial and marine antifouling agents” (The Dow Chemical Company, priority 1994, dated 1995)
Converted amounts (≈) assume the structure as drawn.

Experiments:
[1] = tested on: Enterobacter aerogenes (Ea); experiment: Minimum inhibitory concentration (MIC), bacteria in nutrient agar; type: cell-based, Enterobacter aerogenes ATCC 13048; conditions: Klebsiella aerogenes, 48 hours
Procedure: (§1) The minimum inhibitory concentration (MIC) for the compounds listed in Table I is determined for 9 bacteria, using nutrient agar, and 7 yeast and fungi, using malt yeast agar. A one percent solution of the test compound is prepared in a mixture of acetone and water.
(§2) Nutrient agar is prepared at pH 6.8, representing a neutral medium, and at pH 8.2, representing an alkaline medium. The nutrient agars are prepared by adding 23 g of nutrient agar to one liter of deionized water. In addition, the alkaline medium is prepared by adjusting a 0.04M solution of N-[tris-(hydroxymethyl)methyl]glycine buffered deionized water with concentrated sodium hydroxide to a pH of 8.5.
(§3) The test tubes containing the agar are cooled in a water bath until the temperature of the agar is 48° C. Then, an appropriate amount of the one percent solution of the test compound is added (except in the controls where no compound is added) to the respective test tubes so that the final concentrations are 500, 250, 100, 50, 25, 10, 5, 2.5, 1.0 and zero parts per million of the test compound in the agar, thus having a known concentration of test compound dispersed therein. The contents of the test tubes are then transferred to respective petri plates. After drying for 24 hours, the petri plates containing nutrient agar are inoculated with bacteria and those containing malt yeast agar are inoculated with yeast and fungi.
(§4) The inoculation with bacteria is accomplished by using the following procedure. Twenty-four hour-cultures of each of the bacteria are prepared by incubating the respective bacteria in tubes containing nutrient broth for 24 hours at 30° C. in a shaker. Dilutions of each of the 24 hour-cultures are made so that nine separate suspensions (one for each of the nine test bacteria) are made, each containing 10^8 colony forming units (CFU) per mL of suspension of a particular bacteria. Aliquots of 0.3 mL of each of the bacterial suspensions are used to fill the individual wells of Steer's Replicator. For each microbial suspension, 0.3 mL was used to fill three wells (i.e., three wells of 0.3 mL each) so that for the nine different bacteria, 27 wells are filled. The Steer's Replicator is then used to inoculate both the neutral and alkaline pH nutrient agar petri plates.
(§5) The inoculated petri plates are incubated at 30° C. for 48 hours and then read to determine if the test compound which is incorporated into the agar prevented growth of the respective bacteria.
(§6) Table II lists the bacteria, yeast and fungi used in the MIC test described above along with their respective American Type Culture Collection (ATCC) identification numbers.
(§7) In Tables III and IV, the MIC values of the compounds described in Table I as compared to the MIC of a standard commercial preservative (with 1-(3-chloroallyl)-3,5,7-triaza-1-azoniaadamantane chloride as the active agent and referred to in Tables III and IV as "STANDARD I") are set forth for the bacteria organisms and yeast/fungi organisms which are listed in Table II.

[2] = tested on: Escherichia coli (Ec); experiment: as above; type: cell-based, Escherichia coli ATCC 11229; conditions: 48 hours
Procedure: as §1, §2, §3, §4, §5, §6, §7

[3] = tested on: Aspergillus niger (An); experiment: Minimum inhibitory concentration (MIC), yeast/fungi in malt yeast agar; type: cell-based, Aspergillus niger ATCC 16404; conditions: 30° C., 72 hours for fungi
Procedure: as §1
(§8) Malt yeast agar is prepared by adding 3 g yeast extract and 45 g malt agar per liter of deionized water. The specific agar is dispensed in 30 mL aliquots into 25×200 mm test tubes, capped and autoclaved for 15 minutes at 115° C.
as §3
(§9) The inoculation with the yeast and fungi is accomplished as follows. Cultures of yeast and fungi are incubated for seven days on malt yeast agar at 30° C. These cultures are used to prepare suspensions by the following procedure. A suspension of each organism is prepared by adding 10 mL of sterile saline and 10 microliters of octylphenoxy polyethoxy ethanol to the agar slant of yeast or fungi. The sterile saline/octylphenoxy polyethoxy ethanol solution is then agitated with a sterile swab to suspend the microorganism grown on the slant. Each resulting suspension is diluted into sterile saline (1 part suspension to 9 parts sterile saline). Aliquots of these dilutions are placed in individual wells of Steer's Replicator and petri plates inoculated as previously described. The petri plates are incubated at 30° C. and read after 48 hours for yeast and 72 hours for fungi.
as §6, §7

[4] = tested on: Aureobasidium pullulan (Ap); experiment: as above; type: cell-based, Aureobasidium pullulan ATCC 16622; conditions: 30° C., read after 48 hours for yeast and 72 hours for fungi
Procedure: as §1, §8, §3, §9, §6, §7

[5] = tested on: Proteus vulgaris (Pv); experiment: Minimum inhibitory concentration (MIC), bacteria in nutrient agar; type: cell-based, Proteus vulgaris ATCC 881; conditions: 48 hours
Procedure: as §1, §2, §3, §4, §5, §6, §7

[6] = tested on: Penicillium chrysogenum (Pc); experiment: Minimum inhibitory concentration (MIC), yeast/fungi in malt yeast agar; type: cell-based, Penicillium chrysogenum ATCC 9480; conditions: 30° C., 72 hours for fungi
Procedure: as §1, §8, §3, §9, §6, §7

[7] = tested on: Fusarium oxysporum (Fo); experiment: as above; type: cell-based, Fusarium oxysporum ATCC 48112; conditions: 30° C., 72 hours for fungi
Procedure: as §1, §8, §3, §9, §6, §7

[8] = tested on: Trichoderma viride (Tv); experiment: as above; type: cell-based, Trichoderma viride ATCC 8678; conditions: 30° C., 72 hours for fungi
Procedure: as §1, §8, §3, §9, §6, §7

[9] = tested on: Salmonella choleraesuis (Sc); experiment: Minimum inhibitory concentration (MIC), bacteria in nutrient agar; type: cell-based, Salmonella choleraesuis ATCC 10708; conditions: Salmonella enterica, 48 hours
Procedure: as §1, §2, §3, §4, §5, §6, §7

[10] = tested on: Pseudomonas aeruginosa (Pa); experiment: as above; type: cell-based, Pseudomonas aeruginosa ATCC 10145; conditions: 48 hours
Procedure: as §1, §2, §3, §4, §5, §6, §7

[11] = tested on: Saccharomyces cerevisiae (Sc); experiment: Minimum inhibitory concentration (MIC), yeast/fungi in malt yeast agar; type: cell-based, Saccharomyces cerevisiae ATCC 4105; conditions: 30° C., 48 hours for yeast
Procedure: as §1, §8, §3, §9, §6, §7

[12] = tested on: Pseudomonas aeruginosa (PRD-10); experiment: Minimum inhibitory concentration (MIC), bacteria in nutrient agar; type: cell-based, Pseudomonas aeruginosa ATCC 15442; conditions: 48 hours
Procedure: as §1, §2, §3, §4, §5, §6, §7

[13] = tested on: Bacillus subtilis (Bs); experiment: as above; type: cell-based, Bacillus subtilis ATCC 8473; conditions: 48 hours
Procedure: as §1, §2, §3, §4, §5, §6, §7

[14] = tested on: Staphylococcus aureus (Sa); experiment: as above; type: cell-based, Staphylococcus aureus ATCC 6538; conditions: 48 hours
Procedure: as §1, §2, §3, §4, §5, §6, §7

[15] = tested on: Candida albicans (Ca); experiment: Minimum inhibitory concentration (MIC), yeast/fungi in malt yeast agar; type: cell-based, Candida albicans ATCC 10231; conditions: 30° C., 48 hours for yeast
Procedure: as §1, §8, §3, §9, §6, §7

[16] = tested on: Klebsiella pneumoniae (Kp); experiment: Minimum inhibitory concentration (MIC), bacteria in nutrient agar; type: cell-based, Klebsiella pneumoniae ATCC 8308; conditions: 48 hours
Procedure: as §1, §2, §3, §4, §5, §6, §7

[17] = tested on: marine organisms; experiment: Marine antifouling activity, coated test panels exposed to marine environment; conditions: 6 weeks, scale 10 (completely free of growth) to 0 (completely covered)
Procedure: Test panels are prepared from clear, rigid polyvinyl chloride film that is 0.381×10^-3 m thick and has one textured surface. The test panels are 0.1524 m by 0.1524 m squares that have 0.00635 m holes punched at corners on 0.127 m centers. A 0.102 square template, with a 0.067 m diameter hole at the center, is attached to the center of the textured surface of the test panels.
A candidate marine antifoulant compound (1.0 g) is stirred into a resinous latex binder (9.0 g). A portion of the compound/binder mixture (1.5 g) is added to the center of the test panel and uniformly spread over the circular area inside the template.
Water is added dropwise as needed to properly spread the compound/binder mixture. The template prevents the compound/binder mixture from spreading beyond the uncovered area. […] The template is then removed. The test panel is then allowed to dry for 8 to 12 hours at room temperature.
Two test panels are prepared for each candidate marine antifoulant compound. Two control test panels are also prepared by only treating with the resinous latex binder. One test panel of each candidate marine […] compound is attached over a white background to the topside of an exposure support apparatus. The second test panel is attached over a black background to the underside of the exposure support apparatus. The exposure support apparatus is placed horizontally 0.0254 m under a marine surface with the white background topside facing up.
After being removed from the exposure support apparatus, each test panel is inspected and rated for marine organism growth on both the treated and untreated areas of the test panel. The marine organisms present on the treated and untreated areas are noted. The presence of algae spores and bacterial slime are noted but not included in rating each test panel. The test panels are rated on a scale from 10 (representing completely free of marine organism growth) to 0 (representing completely covered with marine organism growth).
In addition, test panels were prepared using tributyl tin oxide, a known marine antifouling compound.

Structure (SMILES)	MIC ([1]; nutrient agar pH 6.8, 30° C.) [µg/mL]	MIC ([1]; nutrient agar pH 8.2, 30° C.) [µg/mL]	MIC ([2]; nutrient agar pH 6.8, 30° C.) [µg/mL]	MIC ([2]; nutrient agar pH 8.2, 30° C.) [µg/mL]	MIC [3] [µg/mL]	MIC [4] [µg/mL]	MIC ([5]; nutrient agar pH 6.8, 30° C.) [µg/mL]	MIC ([5]; nutrient agar pH 8.2, 30° C.) [µg/mL]	MIC [6] [µg/mL]	MIC [7] [µg/mL]	MIC [8] [µg/mL]	MIC ([9]; nutrient agar pH 6.8, 30° C.) [µg/mL]	MIC ([9]; nutrient agar pH 8.2, 30° C.) [µg/mL]	MIC ([10]; nutrient agar pH 6.8, 30° C.) [µg/mL]	MIC ([10]; nutrient agar pH 8.2, 30° C.) [µg/mL]	MIC [11] [µg/mL]	MIC ([12]; nutrient agar pH 6.8, 30° C.) [µg/mL]	MIC ([12]; nutrient agar pH 8.2, 30° C.) [µg/mL]	MIC ([13]; nutrient agar pH 6.8, 30° C.) [µg/mL]	MIC ([13]; nutrient agar pH 8.2, 30° C.) [µg/mL]	further results
N#CSCSc1nnnn1-c1ccccc1 [Example I, 1-Phenyl-5-thiomethylthiocyanato-1H-tetrazole]	250 (≈ 1000 µM)	500 (≈ 2010 µM)	50 (≈ 201 µM)	250 (≈ 1000 µM)	5 (≈ 20.1 µM)	2.5 (≈ 10 µM)	25 (≈ 100 µM)	100 (≈ 401 µM)	2.5 (≈ 10 µM)	10 (≈ 40.1 µM)	25 (≈ 100 µM)	100 (≈ 401 µM)	250 (≈ 1000 µM)	100 (≈ 401 µM)	100 (≈ 401 µM)	5 (≈ 20.1 µM)	250 (≈ 1000 µM)	250 (≈ 1000 µM)	< 10	50 (≈ 201 µM)	MIC ([14]; nutrient agar pH 6.8, 30° C.): 25 µg/mL (≈ 100 µM); MIC ([14]; nutrient agar pH 8.2, 30° C.): 50 µg/mL (≈ 201 µM); MIC [15]: 25 µg/mL (≈ 100 µM); MIC ([16]; nutrient agar pH 6.8, 30° C.): 100 µg/mL (≈ 401 µM); MIC ([16]; nutrient agar pH 8.2, 30° C.): 100 µg/mL (≈ 401 µM); Marine Antifouling Rating, 6 Week Test, Bottom Panel ([17]; bottom panel (black background)): 9; Marine Antifouling Rating, 6 Week Test, Top Panel ([17]; top panel (white background)): 9
N#CSCSc1nnnn1-c1ccc([N+](=O)[O-])cc1 [XI, 1-(4-Nitrophenyl)-5-thiomethylthiocyanato-1H-tetrazole]	> 100	> 100	> 100	> 100	5 (≈ 17 µM)	10 (≈ 34 µM)	< 100	> 100	< 2.5	25 (≈ 84.9 µM)	25 (≈ 84.9 µM)	> 100	> 100	> 100	> 100	10 (≈ 34 µM)	> 100	> 100	> 100	> 100	MIC ([14]; nutrient agar pH 6.8, 30° C.): 100 µg/mL (≈ 340 µM); MIC ([14]; nutrient agar pH 8.2, 30° C.): 50 µg/mL (≈ 170 µM); MIC [15]: 100 µg/mL (≈ 340 µM); MIC ([16]; nutrient agar pH 6.8, 30° C.): < 100 µg/mL; MIC ([16]; nutrient agar pH 8.2, 30° C.): > 100 µg/mL
